This is an account of results in ChEMBL document CHEMBL5620403, “Design, synthesis, activity and molecular dynamics studies of 1,3,4-thiadiazole derivatives as selective allosteric inhibitors of SHP2 for the treatment of cancer” (Eur J Med Chem, 2023).

Experiment [1] concerns MV4-11. As to the kind of experiment: Antiproliferative activity against human MV4-11 cells assessed as inhibition of cell growth measured after 72 hrs by CCK8 method. Conditions: MV4-11, 72 h. The class given is functional, cell-based.
Another experiment concerns MDA-MB-468. The experiment is described as follows: Antiproliferative activity against human MDA-MB-468 cells assessed as inhibition of cell growth measured after 72 hrs by CCK8 method. It counts as functional, cell-based. The note with it: MDA-MB-468, 72 h. In general terms: Tetrazolium assays rely on reduction of a dye to a coloured formazan, in cell work by metabolically active cells.

Experiment [2] deals with T1, Tyrosine-protein phosphatase non-receptor type 11 (Homo sapiens) (UniProt Q06124).
T1 sequence (whole entry): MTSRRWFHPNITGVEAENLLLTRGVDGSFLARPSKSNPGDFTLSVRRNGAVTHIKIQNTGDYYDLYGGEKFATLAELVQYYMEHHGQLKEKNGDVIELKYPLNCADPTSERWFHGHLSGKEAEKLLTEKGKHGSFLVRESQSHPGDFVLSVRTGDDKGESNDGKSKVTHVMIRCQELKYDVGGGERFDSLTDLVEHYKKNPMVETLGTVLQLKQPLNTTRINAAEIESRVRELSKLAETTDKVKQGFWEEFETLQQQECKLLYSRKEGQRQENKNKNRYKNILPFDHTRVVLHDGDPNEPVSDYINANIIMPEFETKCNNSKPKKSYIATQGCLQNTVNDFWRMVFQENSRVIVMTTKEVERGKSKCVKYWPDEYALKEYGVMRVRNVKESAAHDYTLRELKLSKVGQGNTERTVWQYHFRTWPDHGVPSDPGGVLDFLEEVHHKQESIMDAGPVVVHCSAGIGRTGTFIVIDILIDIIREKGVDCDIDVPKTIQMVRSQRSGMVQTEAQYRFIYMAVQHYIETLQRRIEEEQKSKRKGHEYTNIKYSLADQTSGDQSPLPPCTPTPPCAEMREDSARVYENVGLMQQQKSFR
The experiment is described as follows: Inhibition of SHP2 in human MV4-11 cells assessed as reduction in Akt phosphorylation level at upto 20 uM measured after 4 hrs by Western blot analysis. It counts as cell-based. (In general: In western blotting, separated proteins are transferred to a membrane and probed.)

For experiment [3], the target named is T1, Tyrosine-protein phosphatase non-receptor type 11 (Homo sapiens). As to the kind of experiment: Inhibition of SHP2 in human MV4-11 cells assessed as reduction in Erk1/2 phosphorylation level at upto 20 uM measured after 4 hrs by Western blot analysis. It counts as cell-based.
Experiment [4] has the same target. The experiment is described as follows: Inhibition of SHP2 in human NCI-H358 cells assessed as reduction in Erk1/2 phosphorylation level at upto 20 uM measured after 8 hrs by Western blot analysis. It counts as cell-based.
Experiment [5] has as its system MV4-11. As to the kind of experiment: Induction of apoptosis in human MV4-11 cells assessed as viable cells at 5 uM measured after 4 hrs by Annexin V-FITC/7-AAD staining based flow cytometric analysis (reference value: 95.9%). Conditions: read-out: Activity. The class given is functional. (Flow cytometry measures light scatter and fluorescence of single cells or particles in a stream.)

In experiment [6] the test system is MV4-11. The experiment is described as follows: Induction of apoptosis in human MV4-11 cells assessed as early apoptotic cells at 5 uM measured after 4 hrs by Annexin V-FITC/7-AAD staining based flow cytometric analysis (reference value: 2.48%). It counts as functional.
For experiment [7], the system named is MV4-11. As to the kind of experiment: Induction of apoptosis in human MV4-11 cells assessed as late apoptotic cells at 2.5 uM measured after 4 hrs by Annexin V-FITC/7-AAD staining based flow cytometric analysis (reference value: 1.58%). It counts as functional.
Experiment [8] concerns MV4-11. As to the kind of experiment: Induction of apoptosis in human MV4-11 cells assessed as late apoptotic cells at 5 uM measured after 4 hrs by Annexin V-FITC/7-AAD staining based flow cytometric analysis (reference value: 1.58%). The class given is functional.
Experiment [9] has as its system MV4-11. As to the kind of experiment: Induction of apoptosis in human MV4-11 cells assessed as necrotic cells at 2.5 uM measured after 4 hrs by Annexin V-FITC/7-AAD staining based flow cytometric analysis (reference value: 0.041%). It counts as functional.
The subject of experiment [10] is MV4-11. The experiment is described as follows: Induction of apoptosis in human MV4-11 cells assessed as early apoptotic cells at 5 uM measured after 2 hrs by Annexin V-FITC/7-AAD staining based flow cytometric analysis (reference value: 2.13%). The class given is functional.
The test system of experiment [11] is MV4-11. As to the kind of experiment: Induction of apoptosis in human MV4-11 cells assessed as late apoptotic cells at 5 uM measured after 4 hrs by Annexin V-FITC/7-AAD staining based flow cytometric analysis (reference value: 0.98%). The class given is functional.
Experiment [12] has as its system MV4-11. As to the kind of experiment: Induction of apoptosis in human MV4-11 cells assessed as necrotic cells at 5 uM measured after 1 hrs by Annexin V-FITC/7-AAD staining based flow cytometric analysis (reference value: 0.068%). It counts as functional.

The source made the active and inactive calls. The rule behind the calls is not given here.

The IC50 is the concentration that inhibits the measured activity by half. Take `C[C@@H]1OCC2(CCN(c3nnc(Sc4cccc(Cl)c4Cl)s3)CC2)[C@@H]1N`: the IC50 in the experiment with MV4-11 [1] is 3.85 µM; in the experiment with MDA-MB-468, 14.6 µM. Besides, the inhibition result in [2], in [3] and in experiment [4] was “Active” each time. The viability at 5 µM with MV4-11 [5] stood at 84.1%. Also, the Activity is 8.42% in the experiment with MV4-11 [6]; 2.3% in the experiment on MV4-11 [7]; 5.98% with MV4-11 [8]; 0.076% in the experiment on MV4-11 [9]; 10.9% in the experiment with MV4-11 [10]; 7.78% in the experiment on MV4-11 [11]. In addition, the Activity in the experiment on MV4-11 [12] is 0.91%.
